# From patent US10864207B2, “Method of treating endothelial dysfunction” (Celagenex Research (India) Pvt. Ltd., priority 2019, dated 2020)
# Assays:
# PGI2 gene = PGI2 gene expression by semi-quantitative RT-PCR in H9C2 cells; type: cell-based, rat; details: for PGI2 expression in % / Regulation in Terms of Folds PGI2: normalized to GAPDH; for Regulation in Terms of Folds PGI2: control = 1.00
# Method: […] […] [Hunter C. Champion et al. PNAS, 2005; 102:5:1661-1666].
# PGI2 were estimated for the test substance by gene expression method, where the level of expression of PGI2 expression on Rat Cardiomyocytes (H9C2) was determined with respect to untreated H9C2 cells.
# (§1) The H9C2 cells treated with drug were subjected to cell lysis by treating with Tri-extraction reagent. Chloroform was added, to isolate the total RNA from the sample and subjected for centrifugation. Out of the three distinct layers observed, upper layer was collected in fresh tube and equal volume of isopropanol was added and incubated at −20° C. for 10 mins. After the incubation followed by centrifugation, appropriate volume of ethanol was added to resuspend the pellet. After incubation and centrifugation, the pellet was air dried and appropriate volume of TAE buffer was added. The isolated total RNA was further used for cDNA synthesis. cDNA was synthesized by priming with oligo-dT primers followed by reverse transcriptase enzyme treatment according to manufacturers protocol (Thermoscienctific). The cDNA thus synthesized was taken up for PCR for the amplification of PGI2 and GAPDH/β-Actin (internal control).
# (§2) The mRNA expression levels of PGI2 were determined using semi-quantitative reverse transcriptase-polymerase chain reaction (RT-PCR). 50 μl of the reaction mixture was subjected to PCR for amplification of PGI2. cDNAs using specifically designed primers procured from Eurofins, India and GAPDH/β-Actin (House keeping genes) was co-amplified with each reaction as an internal control.
# (§3) PGI2: 95° C. for 5 min followed by 35 cycles of denaturation at 95° C. for 30 seconds, annealing Tm for 30 seconds and extension at 72° C. for 45 seconds. This was followed by final extension at 72° C. for 10 min. The primers used in this example for I strand synthesis and IInd strand synthesis are disclosed in priority Indian Patent Application No. 201921000093, filed Jan. 2, 2019, which is incorporated herein by reference.
# eNOS gene = eNOS gene expression by semi-quantitative RT-PCR in H9C2 cells; type: cell-based, rat; details: for eNOS expression in % / Regulation in Terms of Folds eNOS: normalized to β-Actin; for Regulation in Terms of Folds eNOS: control = 1.00
# Method: The test substances were evaluated for their gene expression activity in H9C2 (rat cardiomyocytes) and the concentration of test substances (G1, G2 and G3) taken for gene expression studies was 500 μg/ml. […] [Hunter C. Champion, et al. “PNAS, 2005; 102:5:1661-1666.]
# eNOS levels were estimated for the test substance by gene expression method, where the level of expression of eNOS expression on […] Cardiomyocytes (H9C2) was determined with respect to untreated H9C2 cells.
# as §1, with “test samples” for “drug”, “added” for “added,”, “manufacturer's” for “manufacturers”, “eNOS” for “PGI2”, “GAPDH” for “GAPDH/β-Actin”
# as §2, with “eNOS” for “PGI2”, “eNOS.” for “PGI2.”
# as §3, with “eNOS:” for “PGI2:”, “temperature” for “Tm”
SMILES,PGI2 expression in % (PGI2 gene; 250 μg/ml) [%],Regulation in Terms of Folds PGI2 (PGI2 gene; 250 μg/ml) [fold],eNOS expression in % (eNOS gene; 250 μg/ml) [%],Regulation in Terms of Folds eNOS (eNOS gene; 250 μg/ml) [fold],eNOS gene up-regulation over control (eNOS gene; standard sample (250 μg/ml)) [fold],PGI2 gene expression increase as compared to the control (PGI2 gene; 500 μg/ml) [folds],PGI2 expression in % (PGI2 gene; 500 μg/ml) [%],Regulation in Terms of Folds PGI2 (PGI2 gene; 500 μg/ml) [fold],eNOS expression in % (eNOS gene; 500 μg/ml) [%],Regulation in Terms of Folds eNOS (eNOS gene; 500 μg/ml) [fold],eNOS gene over-expression as compared to the control (eNOS gene; at tested doses (500 μg/ml)) [folds]
"O=[N+]([O-])OCC(CO[N+](=O)[O-])O[N+](=O)[O-] [Nitroglycerin, reference compound]",29,1.29,56,1.56,0.56,–,–,–,–,–,–
"C[n+]1cccc(C(N)=O)c1 [Group G1, N^1-methyl nicotinamide chloride]",–,–,–,–,–,0.14,14,1.14,21,1.21,0.21
